Holding throughout (type): cell-based
Assay [1] deals with MDA-MB-231, MIAPaCa-2 and PANC-1 cells. Briefly: Cell counting during cysteine starvation, starvation-sensitive cell lines. The protocol: (§1) The base medium formulation contained 0.2 mM L-histidine, 0.4 mM L-isoleucine, 0.4 mM L-leucine, 0.4 mM L-lysine, 0.2 mM L-phenylalanine, 0.4 mM L-threonine, 0.08 mM L-tryptophan, 0.4 mM L-valine, 0.2 mM L-arginine, 2 mM L-glutamine, 0.2 mM L-tyrosine, 0.4 mM L-alanine, 0.3 mM L-proline, 0.15 mM L-glutamic acid, 0.1 mM L-aspartic acid, 0.2 mM L-asparagine, and 0.4 mM glycine.
(§2) DAPI-stained cell nuclei were detected via microscopy.
(§3) AMD1 inhibitor sardomozide/SAM486A, GPX4 inhibitor RSL3, and CSE inhibitor beta-cyano-L-alanine were used.
(§4) For experiments using spermine oxidase (SMOX) and polyamine oxidase (PAOX) inhibitors or MTOB, cells were pre-treated with stated concentrations for 16 hours in complete medium. After pre-treatment, cells were washed in PBS, and treatment was continued in complete or cysteine-free medium for stated times. After treatment was finished, cells were fixed and stained as described above. For experiments using MTA, polyamines, GPX4 and CSE inhibitors, treatment started at the same time as cysteine starvation. For experiments involving hypoxic conditions, cells were seeded in normoxic conditions and allowed to adhere for 24 hours before control and cysteine starvation medium was added and cells were immediately transferred either to a humidified cell culture incubator set to 37° C. in 20% O2 (normoxia), or a hypoxia chamber set to 37° C. in 1% O2 (hypoxia) for the stated times. Cells were fixed immediately and stained as described above.

The subject of assay [2] is HCT116, SW480 and MDA-MB-468 cells. Briefly: Cell counting during cysteine starvation, starvation-resistant cell lines. To be noted: for cysteine starvation sensitivity on polyamine supplementation: polyamine 20 μM in medium without cysteine. As for the experimental part:
as §1, §2, §3, §4

Assay [3] relates to MDA-MB-231, PANC-1, and MIAPaCa-2 cells. Briefly: CellROX assay on live cells, starvation-sensitive cell lines. To be noted: −Cys, 16 h timepoint. As for the experimental part:
(§5) Cells were seeded as described above. Live cells were stained with Hoechst 33342 nuclear stain for 20 min. The medium was removed, and cells were stained in 100 μl medium containing CellTracker™ Green CMFDA Dye and Hoechst stain for 40 min. The cells were then washed with PBS, and 300 μl of the relevant experimental medium was added for 1 hour. Then, CellROX® Deep Red was spiked into the medium, and the cells were incubated for 40 min. The medium was removed, the cells were washed with PBS, and new relevant experimental medium including CellROX was added. The cells were imaged using an Operetta automated microscope platform set to 37° C. in 5% CO2 every hour for 16-24 hours. I

In assay [4] the test system is MTAP-deleted HCT116 cells. Briefly: Cell counting during cysteine starvation, MTAP-deleted HCT116. To be noted: for cell survival during cysteine starvation: SMOX inhibitor, PAOX inhibitor or MTOB supplementation. The text has this:
[NT] Successfully transfected cells were selected with puromycin and grown as clonal colonies. Clones were selected based initially on MTA efflux measured by liquid chromatography mass spectrometry (LC-MS). Clones with greatest MTA efflux were selected, and methylthioadenosine phosphorylase knockout (MTAP-KO) was then confirmed by western blot. MTAP-KO HCT116 cells were transfected with pCMV-Hygro-MTAP and pCMV-Hygro-negative control vector, selected using hygromycin B, and grown as clonal colonies. Clones were selected based initially on MTA efflux measured by LC-MS. Clones with low MTA efflux were selected, then MTAP re-expression was confirmed by western blot. […] DAPI-stained cell nuclei were detected via microscopy. […] For experiments using spermine oxidase (SMOX) and polyamine oxidase (PAOX) inhibitors or MTOB, cells were pre-treated with stated concentrations for 16 hours in complete medium. After pre-treatment, cells were washed in PBS, and treatment was continued in complete or cysteine-free medium for stated times. After treatment was finished, cells were fixed and stained as described above. For experiments using MTA, polyamines, GPX4 and CSE inhibitors, treatment started at the same time as cysteine starvation. For experiments involving hypoxic conditions, cells were seeded in normoxic conditions and allowed to adhere for 24 hours before control and cysteine starvation medium was added and cells were immediately transferred either to a humidified cell culture incubator set to 37° C. in 20% O2 (normoxia), or a hypoxia chamber set to 37° C. in 1% O2 (hypoxia) for the stated times. Cells were fixed immediately and stained as described above.

Assay [5] concerns MTAP-expressing HCT116 cells. Briefly: Cell counting during cysteine starvation, MTAP-expressing HCT116. To be noted: SMOX inhibitor, PAOX inhibitor or MTOB supplementation. The text has this: [NT] Successfully transfected cells were selected with puromycin and grown as clonal colonies. Clones were selected based initially on MTA efflux measured by liquid chromatography mass spectrometry (LC-MS). Clones with greatest MTA efflux were selected, and methylthioadenosine phosphorylase knockout (MTAP-KO) was then confirmed by western blot. MTAP-KO HCT116 cells were transfected with pCMV-Hygro-MTAP and pCMV-Hygro-negative control vector, selected using hygromycin B, and grown as clonal colonies. Clones were selected based initially on MTA efflux measured by LC-MS. Clones with low MTA efflux were selected, then MTAP re-expression was confirmed by western blot. […] DAPI-stained cell nuclei were detected via microscopy. For experiments using spermine oxidase (SMOX) and polyamine oxidase (PAOX) inhibitors or MTOB, cells were pre-treated with stated concentrations for 16 hours in complete medium. After pre-treatment, cells were washed in PBS, and treatment was continued in complete or cysteine-free medium for stated times. After treatment was finished, cells were fixed and stained as described above. For experiments using MTA, polyamines, GPX4 and CSE inhibitors, treatment started at the same time as cysteine starvation. For experiments involving hypoxic conditions, cells were seeded in normoxic conditions and allowed to adhere for 24 hours before control and cysteine starvation medium was added and cells were immediately transferred either to a humidified cell culture incubator set to 37° C. in 20% O2 (normoxia), or a hypoxia chamber set to 37° C. in 1% O2 (hypoxia) for the stated times. Cells were fixed immediately and stained as described above.

The subject of assay [6] is breast, colorectal and pancreatic cancer cell lines. As to the kind of experiment: Cell counting in complete or cysteine-free medium, cell lines not given. The conditions noted are these: for duration of rescue from cysteine starvation: AMD1 inhibitor or MTOB supplementation. As for the experimental part:
as §1, §2, §3, §4

Assay [7] relates to MDA-MB-231, PANC-1, and MIAPaCa-2 cells. As to the kind of experiment: LC-MS analysis with labelled methionine (polyamine and TsP labelling). The conditions noted are these: 20 μM sardomozide or 0.1 mM MTOB. The protocol:
For experiments using labelled methionine, the same basic protocol was used as described for the steady state metabolite measurements described above. Experimental media were formulated lacking methionine or serine (described above) and supplemented with the stated concentrations of ^13C5^15N1-methionine, ^13C3^15N1-serine or ^34S1-methionine. Metabolites were extracted as described above.
Prepared samples were analyzed on an LC-MS platform consisting of an Accela™ 600 LC system and an Exactive™ mass spectrometer. A Sequant® ZIC®-HILIC column (4.6 mm×150 mm, 3.5 μm) was used to separate the metabolites with the mobile phase using A=0.1% (v/v) formic acid in water and B=0.1% (v/v) formic acid in acetonitrile. A gradient program starting at 20% of A and linearly increasing to 80% at 30 min was used followed by washing (92% of A for 5 mins) and re-equilibration (20% of A for 10 min) steps. The total run time of the method was 45 min. The LC stream was desolvated and ionized in the HESI probe. The Exactive™ mass spectrometer was operated in full scan mode over a mass range of 70-1,200 m/z at a resolution of 50,000 with polarity switching. The LC-MS raw data was converted into mzML files by using ProteoWizard and imported to MZMine 2.10 for peak extraction and sample alignment. An in-house database including all possible ^13C and ^15N isotopic m/z values of the relevant metabolites was used for the assignment of LCMS signals. Finally the peak areas were used for comparative quantification.

Another assay relates to cysteine starved cells. Briefly: CellROX assay on live cells supplemented with polyamines. The conditions noted are these: polyamine 20 μM in medium without cysteine. As for the experimental part: as §5

Entries after “also recorded” stand apart in the source; their conditions may differ.

As for `C=C=CCNCCCCNCC=C=C` [MDL 72527], the “cell death during cysteine starvation” value in assay [1] (SMOX inhibitor 50 μM or PAOX inhibitor 10, 40, 80 μM, 16 h pre-treatment then −Cys) is listed as “prevented cell death”. Further, in assay [2] (SMOX and PAOX inhibitors with spermidine or spermine, −Cys), the “cell survival and growth under polyamine treatment concurrent with cysteine starvation” value is “restored HCT116, SW480, and MDA-MB-468 cell survival and growth”. The “advantage during cysteine starvation” value in assay [2] (SMOX or PAOX inhibitor, 16 h pre-treatment then −Cys) was “little or no additional advantage”. Besides, the “ROS levels (CellROX staining intensity)” value in assay [3] (50 μM SMOX inhibitor) is reported as “allowed cells to maintain lower ROS levels”. Besides, in assay [4], the “cell survival during cysteine starvation” value is “rescued cell survival”. Further, the “impact on cell survival during cysteine starvation” value in assay [5] is reported as “little impact”.
As for `CSCCC(=O)C(=O)O` [MTOB, 4-methylthio-2-oxobutanoic acid], the “rescue from cysteine starvation” value in assay [6] (0.1 mM MTOB 16 h pre-treatment, then −Cys with MTOB 32 h) is given as “rescued cells from cysteine starvation”. The “duration of rescue from cysteine starvation” value in assay [6] is recorded as “temporary”. In assay [7], the “levels of TsP intermediates” value was “did not appreciably increase”; the “polyamine synthesis (dc-SAM and polyamine labelling)” value is on record as “marked inhibition of polyamine synthesis”. In addition, the “cell survival during cysteine starvation” value in assay [4] is recorded as “rescued cell survival”. For the same molecule, the “impact on cell survival during cysteine starvation” value in assay [5] is listed as “little impact”.
Turning to `N=C(N)N/N=C1\CCc2c(C(=N)N)cccc21` [sardomozide], the “cell death in response to cysteine starvation” value in assay [1] (AMD1 inhibitor pre-treatment 16 h) is given as “prevented cell death”. Further, the “duration of rescue from cysteine starvation” value in assay [6] was “temporary”. The “ROS levels (CellROX staining intensity)” value in assay [3] (20 μM AMD1 inhibitor) is “diminished ROS levels”. In addition, in assay [7], the “levels of TsP intermediates” value was “did not appreciably increase”; the “polyamine synthesis (dc-SAM and polyamine labelling)” value was “marked inhibition of polyamine synthesis”. Moreover, the “cell survival in response to cysteine starvation” value in assay [4] (AMD1 inhibitor) is on record as “restored cell survival”.
In the case of `NCCCCNCCCN` [spermidine], in assay [2], the “cysteine starvation sensitivity on polyamine supplementation” value is “dramatic impact; also recorded: dramatically sensitized cells to cysteine starvation”. In addition, the “ROS levels (CellROX deep red)” value in the assay on cysteine starved cells is listed as “rapid increase in ROS levels; also recorded: increased cellular ROS levels”.
The matching figures for `NCCCNCCCCNCCCN` [spermine]: “dramatic impact; also recorded: dramatically sensitized cells to cysteine starvation” and “rapid increase in ROS levels; also recorded: increased cellular ROS levels”.

These data come from patent US12109184B2, “Personalized methods of treating cancer” (CANCER RESEARCH TECHNOLOGY LIMITED, priority 2020, dated 2024).
